Test results published in US9156796B2, “Benzoimidazole-carboxylic acid amide derivatives as APJ receptor modulators” (SANOFI, priority 2013, dated 2015).
pEC50: −log10 of the molar value.

target: T1, human apelin receptor (Homo sapiens, UniProt P35414); test: Determination of agonism on the human apelin receptor by a calcium fluorescence assay (FLIPR); type: cell-based; conditions: HEK293 cells stably transfected with human apelin receptor and Giaq protein, Fluo-4 calcium fluorescence, read-out: EC50 (APJ agonism)
T1 construct: expressed in transfected cells
T1 sequence (P35414 1-380): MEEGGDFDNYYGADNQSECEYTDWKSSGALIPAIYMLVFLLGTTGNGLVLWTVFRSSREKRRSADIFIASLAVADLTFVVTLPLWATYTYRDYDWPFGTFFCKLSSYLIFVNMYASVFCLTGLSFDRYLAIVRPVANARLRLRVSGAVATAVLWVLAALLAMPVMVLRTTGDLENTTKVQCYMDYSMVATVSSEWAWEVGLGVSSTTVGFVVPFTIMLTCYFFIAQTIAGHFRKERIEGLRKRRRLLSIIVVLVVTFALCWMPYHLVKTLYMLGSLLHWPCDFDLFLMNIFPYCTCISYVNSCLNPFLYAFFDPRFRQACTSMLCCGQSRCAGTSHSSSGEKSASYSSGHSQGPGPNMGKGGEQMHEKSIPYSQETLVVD
Excerpt: Determination of Agonism on the Human Apelin Receptor by a Calcium Fluorescence Assay (FLIPR)
The assay is based on the detection of intracellular calcium changes detected by the selective, calcium-chelating dye Fluo-4 (Molecular Probes). A large fluorescence intensity increase is observed upon calcium association with Fluo-4. The dye is delivered to the cell interior using an acetoxymethylester form of Fluo-4, where the intracellular esterase activity results in the charged species being released and trapped within the cytoplasm of the cell. […] By co-expressing the human apelin receptor and a promiscuous Giaq protein, agonism of the apelin receptor couples to phospholipase-C resulting in intracellular calcium mobilization.
The HEK293 cells were stably transfected with the human apelin receptor and the Giaq protein. Cells were selected and maintained in a log phase of growth at 37° and 5% CO2 in the Iscove's minimal essential medium, 10% fetal calf serum, 1× Penicillin-Streptomycin, 400 μg/mL G418. One day prior the assay, cells were passaged by accutase and plated at a density of 50,000 cells/well onto a 96-well plates with black border but clear bottom (Costar, cat#3904) in a final volume of 200 μl growth medium.
In order to load the cells the next day with the calcium-sensitive dye, growth medium was carefully replaced by dye solution (100 μl/well) containing Fluo-4 (4 μM) in basic measurement buffer (135 mM NaCl, 5 mM KCl, 1 mM magnesium sulphate, 5 mM glucose, 20 mM Hepes, 2.5 mM probenecid; adjusted to pH 7.4). Cells were incubated for 1 h at 37° C., and then washed 3× with buffer containing no dye. The washer was programmed to leave a remaining volume of 150 μl after the third wash in the plate.
During the dye-loading of the cells, a serial compound dilution was performed in a separate 96-well plate with overall 4× increased concentrations. Small aliquots of DMSO stock solutions of the compounds (10 mM in 100% DMSO were aliquoted into 150 μl buffer in the first rows of the 96-well plates, and then serially diluted by a factor of 1:3 transferring each time 30 μl to the next rows already containing 60 μl buffer. All compounds were tested in a least 7 concentrations, each condition was performed in triplicates. As comparator, we used freshly prepared apelin-13 solutions, for which also a concentration-response curve was determined at each measurement day. The compound plate was incubated for 10 min after the final dilutions steps at 37° C. before transferring the dye-loaded cell plate and the compound plate into a FLIPR Tetra reader (Molecular Devices). Measurement within this reader started by pipetting the agonist solution (50 μl) on the cell plate. Overall perform 60 reads were performed with an interval of 2 sec. The maximum of the fluorescence transient was used to calculate the agonistic response of the cells. In order to normalize this response, which may vary from plate to plate we set the maximum fluorescence achieved by 1 μM apelin-13 on this plate as 100%.
EC-50 values for apelin-13 and the apelin receptor compounds described in this patent were determined by standard algorithms using a specific software package.

Compared with CC(C)C[C@H](NC(=O)c1ccc2c(c1)nc(Cc1cccs1)n2C1CCCCC1C)C(=O)O (single isomer, unassigned) [Example 412], CC(C)C[C@H](NC(=O)c1ccc2c(c1)nc(Cc1cccs1)n2C1CCCC1C)C(=O)O (single isomer, unassigned) [Example 428] is 0.39 log units lower in pEC50: 6.97 for the first, 6.58 for the second. The first is the more potent here.

CC(C)C[C@H](NC(=O)c1ccc2c(c1)nc(Cc1cccs1)n2C1CCCCC1C)C(=O)O (single isomer, unassigned) [Example 413] and CC(C)C[C@H](NC(=O)c1ccc2c(c1)nc(Cc1cccs1)n2C1CCCC1C)C(=O)O (single isomer, unassigned) [Example 429] are within 0.2 log units of each other in pEC50: 5.99 for the first, 6.05 for the second.

Going from CC(C)C[C@H](NC(=O)c1ccc2c(c1)nc(Cc1cccs1)n2C1CCCCC1C)C(=O)O (single isomer, unassigned) [Example 414] to CC(C)C[C@H](NC(=O)c1ccc2c(c1)nc(Cc1cccs1)n2C1CCCC1C)C(=O)O (single isomer, unassigned) [Example 430], the pEC50 falls from 6.18 to 5.88 (0.30 log units).

Compared with CC(C)C[C@H](NC(=O)c1ccc2c(c1)nc(Cc1cccs1)n2C1CCCCC1C)C(=O)O (single isomer, unassigned) [Example 415], CC(C)C[C@H](NC(=O)c1ccc2c(c1)nc(Cc1cccs1)n2C1CCCC1C)C(=O)O (single isomer, unassigned) [Example 431] is 0.81 log units lower in pEC50: 6.27 for the first, 5.46 for the second.

CC(C)C[C@H](NC(=O)c1ccc2c(c1)nc(Cc1ccco1)n2C1CCCCC1C)C(=O)O (single isomer, unassigned) [Example 416] and CC(C)C[C@@H](CC(=O)O)NC(=O)c1ccc2c(c1)nc(Cc1ccco1)n2C1CCCCC1C (single isomer, unassigned) [Example 432] are within 0.2 log units of each other in pEC50: 7.60 for the first, 7.49 for the second.

Going from CC(C)C[C@H](NC(=O)c1ccc2c(c1)nc(Cc1ccco1)n2C1CCCCC1C)C(=O)O (single isomer, unassigned) [Example 417] to CC(C)C[C@@H](CC(=O)O)NC(=O)c1ccc2c(c1)nc(Cc1ccco1)n2C1CCCCC1C (single isomer, unassigned) [Example 433], the pEC50 falls from 6.15 to 5.76 (0.39 log units).

Going from CC(C)C[C@H](NC(=O)c1ccc2c(c1)nc(Cc1ccco1)n2C1CCCCC1C)C(=O)O (single isomer, unassigned) [Example 418] to CC(C)C[C@@H](CC(=O)O)NC(=O)c1ccc2c(c1)nc(Cc1ccco1)n2C1CCCCC1C (single isomer, unassigned) [Example 434], the pEC50 falls from 6.61 to 6.37 (0.24 log units).

CC(C)C[C@H](NC(=O)c1ccc2c(c1)nc(Cc1ccco1)n2C1CCCCC1C)C(=O)O (single isomer, unassigned) [Example 419] and CC(C)C[C@@H](CC(=O)O)NC(=O)c1ccc2c(c1)nc(Cc1ccco1)n2C1CCCCC1C (single isomer, unassigned) [Example 435] are within 0.2 log units of each other in pEC50: 6.50 for the first, 6.65 for the second.

Going from CCCC[C@H](NC(=O)c1ccc2c(c1)nc(Cc1cccs1)n2C1CCCCC1C)C(=O)O (single isomer, unassigned) [Example 420] to CC(C)C[C@@H](CC(=O)O)NC(=O)c1ccc2c(c1)nc(Cc1cccs1)n2C1CCCCC1C (single isomer, unassigned) [Example 436], the pEC50 falls from 7.85 to 7.62 (0.23 log units). The first is the more potent here.

Going from CCCC[C@H](NC(=O)c1ccc2c(c1)nc(Cc1cccs1)n2C1CCCCC1C)C(=O)O (single isomer, unassigned) [Example 421] to CC(C)C[C@@H](CC(=O)O)NC(=O)c1ccc2c(c1)nc(Cc1cccs1)n2C1CCCCC1C (single isomer, unassigned) [Example 437], the pEC50 rises from 4.70 to 5.31 (0.61 log units).

Compared with CCCC[C@H](NC(=O)c1ccc2c(c1)nc(Cc1cccs1)n2C1CCCCC1C)C(=O)O (single isomer, unassigned) [Example 422], CC(C)C[C@@H](CC(=O)O)NC(=O)c1ccc2c(c1)nc(Cc1cccs1)n2C1CCCCC1C (single isomer, unassigned) [Example 438] is 0.45 log units higher in pEC50: 5.73 for the first, 6.18 for the second.

Going from CCCC[C@H](NC(=O)c1ccc2c(c1)nc(Cc1cccs1)n2C1CCCCC1C)C(=O)O (single isomer, unassigned) [Example 423] to CC(C)C[C@@H](CC(=O)O)NC(=O)c1ccc2c(c1)nc(Cc1cccs1)n2C1CCCCC1C (single isomer, unassigned) [Example 439], the pEC50 rises from 5.01 to 6.18 (1.17 log units).

Going from CC1CCCCC1n1c(Cc2cccs2)nc2cc(C(=O)N[C@@H](CC3CCCCC3)C(=O)O)ccc21 (single isomer, unassigned) [Example 424] to C[C@@H]1CCCC[C@H]1n1c(Cc2cccs2)nc2cc(C(=O)NC(CC3CCCCCC3)C(=O)O)ccc21 (single isomer, unassigned) [Example 450], the pEC50 falls from 6.41 to 6.14 (0.27 log units).

Compared with CC1CCCCC1n1c(Cc2cccs2)nc2cc(C(=O)N[C@@H](CC3CCCCC3)C(=O)O)ccc21 (single isomer, unassigned) [Example 425], C[C@@H]1CCCC[C@H]1n1c(Cc2cccs2)nc2cc(C(=O)NC(CC3CCCCCC3)C(=O)O)ccc21 (single isomer, unassigned) [Example 451] is 0.34 log units higher in pEC50: 5.57 for the first, 5.91 for the second.

Going from CC1CCCCC1n1c(Cc2cccs2)nc2cc(C(=O)N[C@@H](CC3CCCCC3)C(=O)O)ccc21 (single isomer, unassigned) [Example 426] to C[C@@H]1CCCC[C@H]1n1c(Cc2cccs2)nc2cc(C(=O)NC(CC3CCCC3)C(=O)O)ccc21 (single isomer, unassigned) [Example 442], the pEC50 rises from 5.79 to 6.87 (1.08 log units). The second is the more potent here.

CC1CCCCC1n1c(Cc2cccs2)nc2cc(C(=O)N[C@@H](CC3CCCCC3)C(=O)O)ccc21 (single isomer, unassigned) [Example 427] and C[C@@H]1CCCC[C@H]1n1c(Cc2cccs2)nc2cc(C(=O)NC(CC3CCCC3)C(=O)O)ccc21 (single isomer, unassigned) [Example 443] are within 0.2 log units of each other in pEC50: 5.88 for the first, 5.84 for the second.

Going from CCC(CC)n1c(Cc2cccs2)nc2cc(C(=O)NC(C)(CC(C)C)C(=O)O)ccc21 (single isomer, unassigned) [Example 440] to CCCCC(CC(=O)O)NC(=O)c1ccc2c(c1)nc(Cc1cccs1)n2C(CC)CC (single isomer, unassigned) [Example 452], the pEC50 rises from 5.18 to 7.31 (2.13 log units).

Compared with CCC(CC)n1c(Cc2cccs2)nc2cc(C(=O)NC(C)(CC(C)C)C(=O)O)ccc21 (single isomer, unassigned) [Example 441], CCCCC(CC(=O)O)NC(=O)c1ccc2c(c1)nc(Cc1cccs1)n2C(CC)CC (single isomer, unassigned) [Example 453] is 0.29 log units higher in pEC50: 5.82 for the first, 6.11 for the second. The second is the more potent here.

Going from CCC(CC)n1c(Cc2cccs2)nc2cc(C(=O)NC(CC3CCC(C)(C)CC3)C(=O)O)ccc21 (single isomer, unassigned) [Example 444] to CCC(CC)n1c(Cc2cccs2)nc2cc(C(=O)NC(CC3CCCCCC3)C(=O)O)ccc21 (single isomer, unassigned) [Example 448], the pEC50 rises from 5.41 to 6.15 (0.74 log units).

Compared with CCC(CC)n1c(Cc2cccs2)nc2cc(C(=O)NC(CC3CCC(C)(C)CC3)C(=O)O)ccc21 (single isomer, unassigned) [Example 445], CCC(CC)n1c(Cc2cccs2)nc2cc(C(=O)NC(CC3CCCCCC3)C(=O)O)ccc21 (single isomer, unassigned) [Example 449] is 1.02 log units higher in pEC50: 5.05 for the first, 6.07 for the second.

Going from C[C@@H]1CCCC[C@H]1n1c(Cc2cccs2)nc2cc(C(=O)NC(CC3CCC(C)(C)CC3)C(=O)O)ccc21 (single isomer, unassigned) [Example 446] to CCC(CC)n1c(Cc2cccs2)nc2cc(C(=O)NC(CC(=O)O)CC3CCCCC3)ccc21 (single isomer, unassigned) [Example 454], the pEC50 rises from 5.67 to 6.90 (1.23 log units).

For CCC(CC)n1c(Cc2cccs2)nc2cc(C(=O)NC(CC(=O)O)CC3CCCCC3)ccc21 (single isomer, unassigned) [Example 455], the pEC50 was 6.80.
